Laboratory results from patent US10966951B2, “Compositions and methods for lowering triglycerides in a subject having reduced kidney function” (Amarin Pharmaceuticals Ireland Limited, priority 2017, dated 2021).

What was measured:
Format in all cases: in vivo, human
[1] = Essential fatty acid parameters in RBC, 6-week AAMI study (Example 2)
Method: A single-center, 6-week, double-blind, randomized, parallel-group, placebo-controlled, dose-ranging pilot study was performed to evaluate the efficacy, tolerability, and safety of >96% E-EPA in subjects with subjective and objective memory impairment according to generally accepted criteria for Age-Associated Memory Impairment (“AAMI”). The primary objective of the study was to determine the effect of >96% E-EPA 1 g, 2 g, and 4 g daily, compared to placebo, on cognitive performance in subjects with AAMI.
Ninety-four subjects were randomized into one of six groups: 1 g E-EPA daily (n=23), 2 g E-EPA daily (n=24), 4 g E-EPA daily (n=24), 1 g placebo daily (n=7), 2 g placebo daily (n=8), and 4 g placebo daily (n=8). E-EPA was provided as 500 mg soft gel capsules containing >96% E-EPA and 0.2% dl-α-tocopherol as an antioxidant. Placebo capsules contained 467 mg of liquid paraffin and 0.2% dl-α-tocopherol. Ninety-one subjects completed the study. Two subjects in the 2 g E-EPA group and one subject in the 2 g placebo group discontinued the study.
Blood samples (10 mL) were collected at Visit 1 (screening) and at Visits 4, 5, and 6. Analysis was performed by MSR Lipid Analysis, Scottish Crop Research Institute, Dundee, UK. The screening sample acted as baseline for the EFA measurements. Lipid was extracted from plasma, serum, and RBC suspensions and converted into fatty acid methyl esters which were analyzed by gas chromatography to give fatty acid profiles as micrograms fatty acid per gram of sample ([…]) and normalized area percent.
RBC and plasma EFA data were collected at baseline, Day 14, 28, and 42 and summarized by visit for each treatment group. Change from baseline and percent change from baseline were also summarized. ANCOVA comparison of E-EPA dose groups and E-EPA versus placebo was performed.

[2] = system: subjects with Age-Associated Memory Impairment; experiment: Safety and tolerability, 6-week AAMI study (Example 2)
Method: Ninety-four subjects were randomized into one of six groups: 1 g E-EPA daily (n=23), 2 g E-EPA daily (n=24), 4 g E-EPA daily (n=24), 1 g placebo daily (n=7), 2 g placebo daily (n=8), and 4 g placebo daily (n=8).
All randomized subjects that received at least 1 dose of study medication were included in the Safety Population.
Safety evaluations were based on the safety population. Safety and tolerability were assessed in terms of AEs, vital signs, 12-lead ECG, clinical laboratory data, medical history, and study drug compliance. Safety and tolerability data were presented by treatment group.

[3] = system: patients with reduced kidney function (eGFR<90 mL/min/1.73 m^2) and hsCRP≥2.0 mg/L; experiment: Post-hoc ANCHOR analysis, reduced kidney function and hsCRP≥2.0 mg/L (Example 6); details: 4 g/day
Method: CVD-related (e.g., atherogenic) parameters were analyzed in a post-hoc study of 152 patients from the multi-center, placebo-controlled, randomized double-blind, 12-week study described in Example 1. These 152 patients have reduced kidney function (e.g., eGFR<90 mL/min/1.73 m^2 for ≥3 months) and hsCRP≥2.0 mg/L.
72 patients were randomized to E-EPA and 80 patients were randomized to placebo. In total, atherogenic parameters were analyzed in all 152 patients, 54% of which were male and 99% of which were white. The mean age of the 152 patients was 64 years old.
The primary objective of this post-hoc study, was to determine if and how 4 g of daily of >96% E-EPA, compared to placebo, affects patients with reduced kidney function, elevated hsCRP (e.g, hsCRP≥2.0 mg/L), and high triglyceride levels. The secondary objective was to determine if and how 4 g daily of >96% E-EPA, compared to placebo, affected CVD-related parameters in patients with a high risk for CVD and fasting TG levels 200 mg/dL and <500 mg/dL, despite treatment to LDL-C goal on statin therapy. These CVD-parameters include lipid levels, lipoprotein levels, and inflammatory markers, such as TC, LDL-C, HDL-C, vLDL-C, vLDL-TG, RLP-C, non-HDL-C, Apo B, Apo C-III, Lp-PLA, hsCRP, and ox-LDL, and in plasma and RBC EPA concentration. CVD-parameters were analyzed for median difference in percent change from baseline to week 12 in subjects receiving 4 g/day of E-EPA and those receiving the placebo.
The median difference in lipid/lipoprotein, apolipoprotein, and inflammatory parameters were determined from baseline to week 12 for 4/g day of E-EPA compared to placebo.

CC/C=C\C/C=C\C/C=C\C/C=C\C/C=C\CCCC(=O)OCC [E-EPA, ethyl eicosapentaenoate]
AA Mean change from Baseline, Mean (SD) ([1]; 1 g daily, Day 14): −8.1 (21.95) μg/g | DGLA Mean change from Baseline, Mean (SD) ([1]; 1 g daily, Day 14): −2.7 (3.82) μg/g | DHA Mean change from Baseline, Mean (SD) ([1]; 1 g daily, Day 14): −4.6 (9.76) μg/g | EPA/AA Mean change from Baseline, Mean (SD) ([1]; 1 g daily, Day 14): 0.1 (0.04) | AA Mean change from Baseline, Mean (SD) ([1]; 1 g daily, Day 28): −17.0 (20.69) μg/g | DGLA Mean change from Baseline, Mean (SD) ([1]; 1 g daily, Day 28): −3.8 (3.31) μg/g | DHA Mean change from Baseline, Mean (SD) ([1]; 1 g daily, Day 28): −6.4 (11.57) μg/g | EPA/AA Mean change from Baseline, Mean (SD) ([1]; 1 g daily, Day 28): 0.1 (0.05) | DGLA Mean change from Baseline, Mean (SD) ([1]; 1 g daily, Day 42): −3.5 (4.51) μg/g | DHA Mean change from Baseline, Mean (SD) ([1]; 1 g daily, Day 42): −7.0 (12.20) μg/g | EPA/AA Mean change from Baseline, Mean (SD) ([1]; 1 g daily, Day 42): 0.1 (0.06) | DGLA Baseline Mean (SD) ([1]; 1 g daily): 23.0 (5.19) μg/g | EPA/AA Baseline Mean (SD) ([1]; 1 g daily): 0.1 (0.07) | AA LS Mean, 1 g versus 4 g ([1]; 1 g versus 4 g): 8.4 µg/g | DGLA LS Mean, 1 g versus 4 g ([1]; 1 g versus 4 g): 1.5 µg/g | DHA LS Mean, 1 g versus 4 g ([1]; 1 g versus 4 g): 1.0 µg/g | EPA/AA LS Mean, 1 g versus 4 g ([1]; 1 g versus 4 g): −0.18 | AA Mean change from Baseline, Mean (SD) ([1]; 2 g daily, Day 14): −3.1 (25.84) μg/g | DGLA Mean change from Baseline, Mean (SD) ([1]; 2 g daily, Day 14): −2.6 (3.54) μg/g | DHA Mean change from Baseline, Mean (SD) ([1]; 2 g daily, Day 14): −2.0 (9.46) μg/g | EPA/AA Mean change from Baseline, Mean (SD) ([1]; 2 g daily, Day 14): 0.2 (0.04) | DGLA Mean change from Baseline, Mean (SD) ([1]; 2 g daily, Day 28): −4.5 (3.58) μg/g | DHA Mean change from Baseline, Mean (SD) ([1]; 2 g daily, Day 28): −6.2 (9.34) μg/g | EPA/AA Mean change from Baseline, Mean (SD) ([1]; 2 g daily, Day 28): 0.02 (0.06) | DGLA Mean change from Baseline, Mean (SD) ([1]; 2 g daily, Day 42): −5.3 (3.65) μg/g | DHA Mean change from Baseline, Mean (SD) ([1]; 2 g daily, Day 42): −6.3 (9.42) μg/g | EPA/AA Mean change from Baseline, Mean (SD) ([1]; 2 g daily, Day 42): 0.3 (0.06) | DGLA Baseline Mean (SD) ([1]; 2 g daily): 23.0 (5.76) μg/g | EPA/AA Baseline Mean (SD) ([1]; 2 g daily): 0.1 (0.06) | AA LS Mean, 2 g versus 4 g ([1]; 2 g versus 4 g): 9.8 µg/g | DGLA LS Mean, 2 g versus 4 g ([1]; 2 g versus 4 g): 1.5 µg/g | DHA LS Mean, 2 g versus 4 g ([1]; 2 g versus 4 g): 1.0 µg/g | EPA/AA LS Mean, 2 g versus 4 g ([1]; 2 g versus 4 g): −0.11 | DGLA Mean change from Baseline, Mean (SD) ([1]; 4 g daily, Day 14): −5.3 (4.10) μg/g | DHA Mean change from Baseline, Mean (SD) ([1]; 4 g daily, Day 14): −6.9 (9.13) μg/g | EPA/AA Mean change from Baseline, Mean (SD) ([1]; 4 g daily, Day 14): 0.3 (0.07) | DGLA Mean change from Baseline, Mean (SD) ([1]; 4 g daily, Day 28): −7.1 (4.63) μg/g | DHA Mean change from Baseline, Mean (SD) ([1]; 4 g daily, Day 28): −8.7 (11.63) μg/g | EPA/AA Mean change from Baseline, Mean (SD) ([1]; 4 g daily, Day 28): 0.4 (0.11) | DGLA Mean change from Baseline, Mean (SD) ([1]; 4 g daily, Day 42): −8.0 (4.98) μg/g | EPA/AA Mean change from Baseline, Mean (SD) ([1]; 4 g daily, Day 42): 0.4 (0.14) | DGLA Baseline Mean (SD) ([1]; 4 g daily): 24.0 (5.77) μg/g | EPA/AA Baseline Mean (SD) ([1]; 4 g daily): 0.1 (0.04) | subjects with nausea Possibly Related to the study drug ([2]; 1 g cohort): two | nausea Probably Related to the study drug ([2]; 1 g, one subject): experienced nausea that was Probably Related to the study drug | subjects with nausea Possibly Related to the study drug ([2]; 2 g cohort): one | SAE reported ([2]; 2 g treatment group): One SAE | subjects discontinued due to TEAEs ([2]; 2 g treatment group): 2 subjects | relatedness of the SAE (worsening epigastric chest pain) ([2]; 2 g, one subject): unrelated to the study drug | subjects with nausea Possibly Related to the study drug ([2]; 4 g cohort): two | diarrhea Probably Related to the study drug ([2]; 4 g, one subject): experienced diarrhea that was Probably Related to the study drug | TEAEs Definitely Related to the study drug ([2]; all groups): No TEAEs were Definitely Related | albumin after 12 weeks ([3]; after 12 weeks): 4.4 g/dL | serum creatinine after 12 weeks ([3]; after 12 weeks): 0.9 mg/dL | albumin before treatment ([3]; before the 12 weeks): 4.5 g/dL | eGFR before treatment ([3]; before the 12 weeks): 72.4 mL/min/1.73 m^2 | serum creatinine before treatment ([3]; before the 12 weeks): 0.9 mg/dL
